Data: patent US20240315991A1, “USES OF HNF4 ALPHA AGONISTS” (Sanford Burnham Prebys Medical Discovery Institute, priority 2023, published 2024)

Assays:
[1] = target: T1, HNF4α (Homo sapiens, UniProt P41235); details: cited from earlier work
T1 sequence (P41235 1-474): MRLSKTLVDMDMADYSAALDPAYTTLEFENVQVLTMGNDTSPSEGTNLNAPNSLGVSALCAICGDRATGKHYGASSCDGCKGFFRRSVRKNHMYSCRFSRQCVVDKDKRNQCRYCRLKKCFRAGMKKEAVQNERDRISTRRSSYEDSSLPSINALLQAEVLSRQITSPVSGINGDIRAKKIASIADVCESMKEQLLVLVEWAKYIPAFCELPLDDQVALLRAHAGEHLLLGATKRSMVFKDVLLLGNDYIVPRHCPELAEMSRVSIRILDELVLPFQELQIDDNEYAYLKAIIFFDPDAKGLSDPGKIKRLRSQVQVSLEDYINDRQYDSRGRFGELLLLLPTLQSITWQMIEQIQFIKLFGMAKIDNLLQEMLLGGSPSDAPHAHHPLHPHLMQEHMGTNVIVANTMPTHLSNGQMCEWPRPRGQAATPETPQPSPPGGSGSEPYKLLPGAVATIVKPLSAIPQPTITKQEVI

[2] = tested on: ILIβ mRNA; experiment: RT-PCR of mouse liver, ILIβ; assay type: in vivo; details: HFD+NCT vs HFD, FIG. 5C
Protocol: (§1) NCT oral administration. Four-week-old male C57BL/6J (JAX cat #000664) mice were purchased from Jackson laboratory and were maintained in a 12 h light/dark cycle throughout the experiment. Prior to the experiments, mice were acclimated for 2 weeks. Six-week-old mice with similar body weights were randomized to a normal diet (NC), a high fat diet (HFD) (Research Diets, cat #D12492 60 kcal % fat) or HFD containing 4000 ppm NCT (HFD+NCT) (Research Diets, 60 kcal % fat+4000 ppm NCT), which was calculated to provide approximately 400 mg/kg/d NCT. HFD chow containing NCT was made with gray dye to distinguish it from regular HFD chow that had green dye. Mice for each treatment group were placed in separate cages. Equal amounts of fresh chow were provided every week to all mice. Body weight gain and food intake were measured every week for 10 weeks. After 10 weeks of chow treatment, mice were sacrificed for analysis. […]
(§2) RT-PCR. […] Quantitative real time PCR (RT-PCR) analysis was performed using SYBR® Select Master Mix (Applied Biosystems) and an ABI 7900HT thermal cycler (Applied Biosystems, Thermo Fisher Scientific). Ct values were normalized to 18s rRNA and are expressed as fold change over samples from mice fed NC or cultured human hepatocytes without NCT.

[3] = tested on: hepatic cytochrome C; experiment: Western blotting of liver, cytochrome C; assay type: in vivo, mouse; details: HFD+NCT vs HFD, FIGS. 3D-3F
Protocol: NCT oral administration. Four-week-old male C57BL/6J (JAX cat #000664) mice were purchased from Jackson laboratory and were maintained in a 12 h light/dark cycle throughout the experiment. Prior to the experiments, mice were acclimated for 2 weeks. Six-week-old mice with similar body weights were randomized to a normal diet (NC), a high fat diet (HFD) (Research Diets, cat #D12492 60 kcal % fat) or HFD containing 4000 ppm NCT (HFD+NCT) (Research Diets, 60 kcal % fat+4000 ppm NCT), which was calculated to provide approximately 400 mg/kg/d NCT. HFD chow containing NCT was made with gray dye to distinguish it from regular HFD chow that had green dye. Mice for each treatment group were placed in separate cages. Equal amounts of fresh chow were provided every week to all mice. Body weight gain and food intake were measured every week for 10 weeks. After 10 weeks of chow treatment, mice were sacrificed for analysis. All animal experiments were approved by the Institutional Animal Care and Use Committee (IACUC) of the Sanford Burnham Prebys Medical Discovery Institute in accordance with national regulations. Sample size was chosen based on the prior study of NCT delivered by IP injection.
Western blotting. Mouse liver extracts were prepared by incubation in RIPA buffer (Invitrogen) containing protease inhibitors (Calbiochem, SanDiego, CA). Protein was quantified by BCA assay (Thermo Scientific). […]

[4] = tested on: Sirt3 mRNA; experiment: RT-PCR of primary human hepatocytes, Sirtuin3; assay type: cell-based; details: HEP-fat media, NCT 5, 15, and 40 μM, FIG. 4H
Protocol: (§3) Primary human hepatocytes. Experiments with primary human hepatocytes were performed by CN-Bio (Cambridge, UK). Briefly, primary human hepatocytes (PHHs), human Kupffer cells (HKs) and human stellate cells (HSCs) were seeded onto CN-Bio's PhysioMimix LC12 MPS culture plates at 6×10^5 cells for PHHs and 6×10^4 cells for HKs and HSCs in 1.6 ml of CN-Bio's HEP-lean media with 5% FCS. Throughout the experiment the cells were maintained at a flow rate of 1 μl/s. After 24 hours (Day 1) of seeding, the media was changed to HEP-lean media and the cells were incubated until day 4 to allow the cells to form microtissues. At day 4 post seeding, media was changed to HEP-fat media and treated with DMSO or NCT (5, 15, and 40 μM). Media was replaced on days 6 and 8. Cells were harvested on day 10 for RNA extraction and culture media was collected for ELISA analysis.
as §2

[5] = tested on: SDHA mRNA; experiment: RT-PCR of primary human hepatocytes, SDHA; assay type: cell-based; details: HEP-fat media, NCT 5, 15, and 40 μM, FIGS. 3I and 3J
Protocol: as §3, §2

[6] = tested on: HSP60 mRNA; experiment: RT-PCR of mouse liver, HSP60; assay type: in vivo; details: HFD+NCT vs HFD, FIG. 3M
Protocol: as §1, §2

[7] = tested on: nitric oxide (NO); experiment: Nitric oxide assay in mouse liver; assay type: in vivo; details: HFD+NCT vs HFD, FIG. 5G
Protocol: as §1
T6PNE cells were maintained in RPMI (5.5 mM glucose, Corning) supplemented with 10% fetal bovine serum (FBS, Sigma-Aldrich) and 1% penicillin-streptomycin (pen-strep, Gibco) in 5% CO2 at 37° C. […] NO was measured with the QuantiChrom Nitric Oxide Assay kit (D2NO-100, BioAssay Systems). […] Samples and standard from kit were incubated with reagents for 20 min at 60° C. and measured OD 540 nm.

## O=C(/C=C/c1ccc(O)c(O)c1)NCCc1ccc(O)cc1 [NCT, N-trans caffeoyltyramine]
[1]; HNF4α siRNA ablates their effect
  specificity for HNF4α: exhibit specificity for HNF4α
[1]
  activation of HNF4α, potency compared with Alverine and Benfluorex: much more potent activators
[2]
  expression level of ILIβ in mouse liver: non-significant
[2]; listed as Compound A
  expression level of ILIβ in mouse liver: not affect
[3]
  hepatic cytochrome C protein level: reverse the depression
[4]
  Sirt3 mRNA in primary human hepatocytes: reverse the depression
[5]
  SDHA mRNA in human hepatocytes: increase
[6]
  HSP60 mRNA level in liver: reverse the induction
[7]
  level of NO in the livers of mice fed on HFD: decrease
